The values that follow come from PubChem BioAssay (NCI).

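Protocol summary: plate cells (96-well), add compound at 5 concentrations, incubate 48 h, interpolate endpoints linearly. GI50 marks 50% less growth. TGI is the concentration that stops growth completely.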

Test systems include HCC-2998 colon; HS 578T breast; MCF7 breast; SNB-75 CNS; UACC-257 melanoma; LOX IMVI melanoma; NCI-H23 lung; RPMI-8226 leukemia; HCT-116 colon; MDA-MB-231 breast.
Common to all, as to test: NCI anticancer screen, dose series, 48 h

For `Cn1c2ccccc2c2c3c(c4c5cc(Br)ccc5n(C)c4c21)C(=O)N(O)C3=O`, the GI50 in the experiment with HCC-2998 colon is 1.01 µM; in the experiment with HS 578T breast, 1.09 µM; in the experiment on MCF7 breast, 0.0579 µM; in the experiment with SNB-75 CNS it was 0.0595 µM; with UACC-257 melanoma, 0.264 µM. Also, the TGI in the experiment on HCC-2998 colon is greater than 100 µM; in the experiment with HS 578T breast, greater than 100 µM; with MCF7 breast, greater than 100 µM; in the experiment on SNB-75 CNS it was 0.659 µM; in the experiment on UACC-257 melanoma, greater than 100 µM.

With `O=C(CCn1[nH]c(=O)c(Cl)c(Cl)c1=O)NO`, the TGI in the experiment on HCC-2998 colon, in the experiment with LOX IMVI melanoma, in the experiment with NCI-H23 lung, in the experiment on RPMI-8226 leukemia, in the experiment on SNB-75 CNS and in the experiment on UACC-257 melanoma was greater than 100 µM each time.

As for `Cc1cc([N+](=O)[O-])ccc1Nc1cccc(Cl)c1C`, the TGI in the experiment with HCC-2998 colon turned out to be 32.6 µM; with HCT-116 colon it was 29.6 µM; in the experiment with LOX IMVI melanoma, 33.9 µM; in the experiment on NCI-H23 lung it was 33.3 µM; with SNB-75 CNS it was 52.7 µM; with UACC-257 melanoma it was 40.4 µM.

Regarding `Cc1cc(CC(O)c2ccc(Cl)c(Cl)c2)nc(=O)[nH]1` (centres undefined), the TGI in the experiment on HCT-116 colon was 54.2 µM; with NCI-H23 lung it was greater than 100 µM; in the experiment on RPMI-8226 leukemia, greater than 100 µM; with SNB-75 CNS, 48.8 µM; with UACC-257 melanoma it was greater than 100 µM.

In the case of `Cc1ccc(NC(=O)C(=O)C(C(=O)c2ccc3ccccc3c2)C2OC(=O)c3ccccc32)cc1C` (centres undefined), the TGI worked out at 18.9 µM in the experiment on HCC-2998 colon; 25.5 µM in the experiment on HCT-116 colon; 32.8 µM in the experiment with LOX IMVI melanoma; 18 µM with NCI-H23 lung; 37.5 µM with RPMI-8226 leukemia; 7.34 µM in the experiment on SNB-75 CNS. The molecule also showed a TGI in the experiment with UACC-257 melanoma of 42.4 µM.

On to `CCCN=C(N)NC#N`, for which the TGI in the experiment with HCC-2998 colon, in the experiment with HCT-116 colon, in the experiment with NCI-H23 lung, in the experiment on RPMI-8226 leukemia, in the experiment with SNB-75 CNS and in the experiment with UACC-257 melanoma was greater than 100 µM throughout.

As to `[Cl][Hg][c]1cc(Br)cc(Br)c1`, the GI50 with HCC-2998 colon is 2.08 µM; in the experiment with HCT-116 colon, 3.41 µM; with HS 578T breast, 1.58 µM; in the experiment on LOX IMVI melanoma, 1.41 µM; in the experiment on MDA-MB-231 breast it was 1.79 µM; with NCI-H23 lung, 2.65 µM. The results for the GI50 in the experiment on RPMI-8226 leukemia, with SNB-75 CNS and with UACC-257 melanoma were 1.81 µM, 1.24 µM and 10 µM, respectively. The TGI in the experiment on HCC-2998 colon amounted to 4.29 µM; in the experiment on HCT-116 colon, 13.4 µM; in the experiment on HS 578T breast it was 7.07 µM; in the experiment on LOX IMVI melanoma, 2.86 µM; in the experiment on MDA-MB-231 breast, 3.89 µM; in the experiment with NCI-H23 lung, 9.02 µM. For the same molecule, the TGI came to 4.86 µM in the experiment with RPMI-8226 leukemia, 3.43 µM in the experiment with SNB-75 CNS and 21.6 µM in the experiment with UACC-257 melanoma.

As to `O=S1(=O)C[C@H](O)[C@H](O)CS1`, the TGI with HCC-2998 colon, in the experiment with HCT-116 colon, in the experiment on LOX IMVI melanoma, in the experiment with NCI-H23 lung, in the experiment with RPMI-8226 leukemia and in the experiment with SNB-75 CNS was greater than 100 µM throughout. The TGI in the experiment with UACC-257 melanoma was greater than 100 µM.

As to `Cc1nn(-c2ccccc2)c2nc(N3CCOCC3)nnc12`, the TGI in the experiment with HCC-2998 colon, with HCT-116 colon, with LOX IMVI melanoma, in the experiment with NCI-H23 lung, in the experiment with RPMI-8226 leukemia and in the experiment on SNB-75 CNS was greater than 100 µM each time. In the experiment on UACC-257 melanoma, this molecule yielded a TGI greater than 100 µM.

Turning to `CC(C)N(C(=O)C12C3C4C5(C#N)C3C1(C#N)C5C42I)C(C)C` (centres undefined), the TGI with HCC-2998 colon is greater than 100 µM; in the experiment with HCT-116 colon, 31.5 µM; in the experiment with LOX IMVI melanoma it was greater than 78.8 µM; in the experiment on NCI-H23 lung it was greater than 100 µM; in the experiment on RPMI-8226 leukemia, greater than 66.6 µM; in the experiment on SNB-75 CNS it was greater than 100 µM. In the experiment with UACC-257 melanoma, the TGI is greater than 100 µM.

Regarding `NNC(=S)N/N=C(\CC1OC(=O)c2ccccc21)c1ccccc1O` (centres undefined), the TGI in the experiment with HCC-2998 colon was greater than 100 µM; in the experiment on HCT-116 colon, greater than 100 µM; in the experiment on LOX IMVI melanoma, 32.6 µM; in the experiment on NCI-H23 lung it was greater than 100 µM; in the experiment with SNB-75 CNS it was 86.1 µM; in the experiment with UACC-257 melanoma, greater than 100 µM.

Take `O=C(/C=C/c1ccccc1O)c1ccccc1O`: the TGI in the experiment on HCC-2998 colon, with HCT-116 colon, in the experiment with LOX IMVI melanoma, in the experiment with NCI-H23 lung, with RPMI-8226 leukemia and in the experiment on SNB-75 CNS was greater than 100 µM each time. In the experiment with UACC-257 melanoma, this molecule displayed a TGI greater than 100 µM.

Turning to `COc1ccc2c3c([nH]c2c1[N+](=O)[O-])C(C)=NCC3`, the TGI in the experiment on HCC-2998 colon, with HCT-116 colon, with LOX IMVI melanoma, in the experiment on RPMI-8226 leukemia, with SNB-75 CNS and with UACC-257 melanoma was greater than 100 µM throughout.

As for `COc1ccc(C(=O)C(c2ccc(OC)cc2)C2(O)C(=O)Nc3ccc([N+](=O)[O-])cc32)cc1` (centres undefined), the TGI with HCT-116 colon, in the experiment with NCI-H23 lung, with RPMI-8226 leukemia, in the experiment on SNB-75 CNS and in the experiment with UACC-257 melanoma was greater than 100 µM in each case.

In the case of `CN(C)N=Nc1ccc(NC=O)cc1`, the TGI in the experiment with HCC-2998 colon, in the experiment with HCT-116 colon, with LOX IMVI melanoma, in the experiment on MCF7 breast, in the experiment with MDA-MB-231 breast and in the experiment on RPMI-8226 leukemia was greater than 100 µM in each case. In addition, the TGI in the experiment on SNB-75 CNS and in the experiment on UACC-257 melanoma was greater than 100 µM throughout.

For the molecule `Cc1ccc(S(=O)(=O)N(CC(=O)O)c2ccccc2)cc1`, the TGI with HCC-2998 colon, with LOX IMVI melanoma, in the experiment with NCI-H23 lung, in the experiment with RPMI-8226 leukemia, with SNB-75 CNS and in the experiment on UACC-257 melanoma was greater than 100 µM in each case.

For `CN(C)/C=N/c1nc2c(ncn2C2OC(CO)C(O)C2O)c(=O)[nH]1` (centres undefined), the TGI in the experiment on HCC-2998 colon, with HCT-116 colon, in the experiment with NCI-H23 lung, in the experiment with RPMI-8226 leukemia, in the experiment on SNB-75 CNS and with UACC-257 melanoma was greater than 100 µM throughout.

In the case of `COc1cccc(/C=C/c2cc(OC)c(OC)c(OC)c2)c1`, the TGI in the experiment with HCC-2998 colon is greater than 100 µM; with HCT-116 colon, greater than 100 µM; in the experiment with NCI-H23 lung, greater than 100 µM; with RPMI-8226 leukemia, greater than 100 µM; with SNB-75 CNS it was 60.1 µM; with UACC-257 melanoma, greater than 100 µM.
